Laboratory results published in ChEMBL document CHEMBL3714722, “Aryl, Pyrimidyl Compounds, Pharmaceutical Compositions Comprising them, Their Use as Antimicrobial Agents” (2008).

What was measured:
Thymidylate kinase = molecular target: T1, Thymidylate kinase (Mycobacterium tuberculosis, UniProt P9WKE1); assay: Inhibition of Mycobacterium tuberculosis TMPK using dTMP substrate and NADH by pyruvate kinase/lactate dehydrogenase coupling system based spectrophotometric assay
T1 sequence (P9WKE1 whole entry): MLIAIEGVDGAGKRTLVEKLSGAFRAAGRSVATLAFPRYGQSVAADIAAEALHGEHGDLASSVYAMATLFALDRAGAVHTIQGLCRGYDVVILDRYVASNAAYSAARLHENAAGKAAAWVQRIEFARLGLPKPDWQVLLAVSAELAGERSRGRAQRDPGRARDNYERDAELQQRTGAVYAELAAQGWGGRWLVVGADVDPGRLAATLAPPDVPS

Vero [1] = assay: Growth inhibition of African green monkey Vero cells up to 250 ug/ml; type: cell-based; conditions: chlorocebus sabaeus
Vero [2] = assay: Cytotoxic activity against African green monkey Vero cells up to 250 ug/ml; type: cell-based; conditions: chlorocebus sabaeus

Row | Structure (SMILES) | Ki (Thymidylate kinase) | Activity (Vero [1]) | Activity (Vero [2])
1 | COC(=O)CCCC#Cc1ccc(Cn2cc(C)c(=O)[nH]c2=O)cc1 | Not Active |  | 
2 | Cc1cn(Cc2ccc(CCCCCC(=O)O)cc2)c(=O)[nH]c1=O |  | Non-toxic | Non-toxic
